Measured values as given in patent US6358885B1, “Substituted phenylheterocyclic herbicides” (Mississippi State University, priority 1992, dated 2002).

What was measured:
Test in all cases: Test B preemergence/postemergence greenhouse plant response rating 0 to 10
cheatgrass = type: in vivo, Bromus secalinus; settings: for Plant response rating, Cheatgrass: 0 to 10 scale
Procedure, shortened: (§1)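 Test chemicals were sprayed onto freshly planted seed and, concurrently, onto young plants between the one and four leaf stage. After a twelve- to sixteen-day greenhouse period, each species was visually compared with untreated controls.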

wheat = type: in vivo, Triticum aestivum; settings: for Plant response rating, Wheat: 0 to 10 scale
Procedure, shortened: as §1

chickweed = type: in vivo, Stellaria media; settings: for Plant response rating, Chickweed: 0 to 10 scale
Procedure, shortened: as §1

crabgrass = type: in vivo, Digitaria spp.; settings: for Plant response rating, Crabgrass: 0 to 10 scale
Procedure, shortened: as §1

bedstraw = type: in vivo, Galium aparine; settings: for Plant response rating, Bedstraw: 0 to 10 scale
Procedure, shortened: as §1

purple nutsedge = type: in vivo, Cyperus rotundus; settings: for Plant response rating, Nutsedge: 0 to 10 scale
Procedure, shortened: as §1

wild buckwheat = type: in vivo, Polygonum convolvulus; settings: for Plant response rating, Wild buckwheat: 0 to 10 scale
Procedure, shortened: as §1

morningglory = type: in vivo, Ipomoea hederacea; settings: for Plant response rating, Morningglory: 0 to 10 scale
Procedure, shortened: as §1

blackgrass = type: in vivo, Alopecurus myosuroides; settings: for Plant response rating, Blackgrass: 0 to 10 scale
Procedure, shortened: as §1

velvetleaf = type: in vivo, Abutilon theophrasti; settings: for Plant response rating, Velvetleaf: 0 to 10 scale
Procedure, shortened: as §1

lambsquarters = type: in vivo, Chenopodium album; settings: for Plant response rating, Lambsquarter: 0 to 10 scale
Procedure, shortened: as §1

sorghum = type: in vivo, Sorghum bicolor; settings: for Plant response rating, Sorghum: 0 to 10 scale
Procedure, shortened: as §1

barley = type: in vivo, Hordeum vulgare; settings: for Plant response rating, Barley: 0 to 10 scale
Procedure, shortened: as §1

barnyardgrass = type: in vivo, Echinochloa crus-galli; settings: for Plant response rating, Barnyardgrass: 0 to 10 scale
Procedure, shortened: as §1

soybean = type: in vivo, Glycine max; settings: for Plant response rating, Soybean: 0 to 10 scale
Procedure, shortened: as §1

sugar beet = type: in vivo, Beta vulgaris; settings: for Plant response rating, Sugar beet: 0 to 10 scale
Procedure, shortened: as §1

cotton = type: in vivo, Gossypium hirsutum; settings: for Plant response rating, Cotton: 0 to 10 scale
Procedure, shortened: as §1

rape = type: in vivo, Brassica napus; settings: for Plant response rating, Rape: 0 to 10 scale
Procedure, shortened: as §1

wild oat = type: in vivo, Avena fatua; settings: for Plant response rating, Wild oat: 0 to 10 scale
Procedure, shortened: as §1

rice = type: in vivo, Oryza sativa; settings: for Plant response rating, Rice: 0 to 10 scale
Procedure, shortened: as §1

corn = type: in vivo, Zea mays; settings: for Plant response rating, Corn: 0 to 10 scale
Procedure, shortened: as §1

cocklebur = type: in vivo, Xanthium pensylvanicum; settings: for Plant response rating, Cocklebur: 0 to 10 scale
Procedure, shortened: as §1

giant foxtail = type: in vivo, Setaria faberii; settings: for Plant response rating, Giant foxtail: 0 to 10 scale
Procedure, shortened: as §1

Structure (SMILES): COCCOc1cc(-c2nn3c(c2Cl)CCCC3)c(Cl)cc1Cl [Compound 72]
- Plant response rating, Cheatgrass (cheatgrass; POSTEMERGENCE, Rate 50 g/ha): 5
- Plant response rating, Cheatgrass (cheatgrass; PREEMERGENCE, Rate 50 g/ha): 0
- Plant response rating (0 to 10 scale), Cheatgrass (cheatgrass; PREEMERGENCE, Rate 200 g/ha): 3
- Plant response rating, Cheatgrass (cheatgrass; Rate 200 g/ha, POSTEMERGENCE): 6
- Plant response rating, Wheat (wheat; POSTEMERGENCE, Rate 50 g/ha): 5
- Plant response rating, Wheat (wheat; PREEMERGENCE, Rate 50 g/ha): 0
- Plant response rating (0 to 10 scale), Wheat (wheat; PREEMERGENCE, Rate 200 g/ha): 3
- Plant response rating, Wheat (wheat; Rate 200 g/ha, POSTEMERGENCE): 5
- Plant response rating, Chickweed (chickweed; POSTEMERGENCE, Rate 50 g/ha): 2
- Plant response rating, Chickweed (chickweed; PREEMERGENCE, Rate 50 g/ha): 0
- Plant response rating (0 to 10 scale), Chickweed (chickweed; PREEMERGENCE, Rate 200 g/ha): 9
- Plant response rating, Chickweed (chickweed; Rate 200 g/ha, POSTEMERGENCE): 3
- Plant response rating, Crabgrass (crabgrass; POSTEMERGENCE, Rate 50 g/ha): 2
- Plant response rating, Crabgrass (crabgrass; PREEMERGENCE, Rate 50 g/ha): 0
- Plant response rating (0 to 10 scale), Crabgrass (crabgrass; PREEMERGENCE, Rate 200 g/ha): 9
- Plant response rating, Crabgrass (crabgrass; Rate 200 g/ha, POSTEMERGENCE): 2
- Plant response rating, Bedstraw (bedstraw; POSTEMERGENCE, Rate 50 g/ha): 7
- Plant response rating, Bedstraw (bedstraw; PREEMERGENCE, Rate 50 g/ha): 0
- Plant response rating (0 to 10 scale), Bedstraw (bedstraw; PREEMERGENCE, Rate 200 g/ha): 8
- Plant response rating, Bedstraw (bedstraw; Rate 200 g/ha, POSTEMERGENCE): 9
- Plant response rating, Nutsedge (purple nutsedge; POSTEMERGENCE, Rate 50 g/ha): 2
- Plant response rating, Nutsedge (purple nutsedge; PREEMERGENCE, Rate 50 g/ha): 0
- Plant response rating (0 to 10 scale), Nutsedge (purple nutsedge; PREEMERGENCE, Rate 200 g/ha): 4
- Plant response rating, Nutsedge (purple nutsedge; Rate 200 g/ha, POSTEMERGENCE): 2
- Plant response rating, Wild buckwheat (wild buckwheat; POSTEMERGENCE, Rate 50 g/ha): 10
- Plant response rating, Wild buckwheat (wild buckwheat; PREEMERGENCE, Rate 50 g/ha): 0
- Plant response rating (0 to 10 scale), Wild buckwheat (wild buckwheat; PREEMERGENCE, Rate 200 g/ha): 2
- Plant response rating, Wild buckwheat (wild buckwheat; Rate 200 g/ha, POSTEMERGENCE): 10
- Plant response rating, Morningglory (morningglory; POSTEMERGENCE, Rate 50 g/ha): 7
- Plant response rating, Morningglory (morningglory; PREEMERGENCE, Rate 50 g/ha): 0
- Plant response rating (0 to 10 scale), Morningglory (morningglory; PREEMERGENCE, Rate 200 g/ha): 0
- Plant response rating, Morningglory (morningglory; Rate 200 g/ha, POSTEMERGENCE): 9
- Plant response rating, Blackgrass (blackgrass; POSTEMERGENCE, Rate 50 g/ha): 5
- Plant response rating, Blackgrass (blackgrass; PREEMERGENCE, Rate 50 g/ha): 0
- Plant response rating (0 to 10 scale), Blackgrass (blackgrass; PREEMERGENCE, Rate 200 g/ha): 4
- Plant response rating, Blackgrass (blackgrass; Rate 200 g/ha, POSTEMERGENCE): 7
- Plant response rating, Velvetleaf (velvetleaf; POSTEMERGENCE, Rate 50 g/ha): 9
- Plant response rating, Velvetleaf (velvetleaf; PREEMERGENCE, Rate 50 g/ha): 0
- Plant response rating (0 to 10 scale), Velvetleaf (velvetleaf; PREEMERGENCE, Rate 200 g/ha): 10
- Plant response rating, Velvetleaf (velvetleaf; Rate 200 g/ha, POSTEMERGENCE): 10
- Plant response rating, Lambsquarter (lambsquarters; POSTEMERGENCE, Rate 50 g/ha): 10
- Plant response rating, Lambsquarter (lambsquarters; PREEMERGENCE, Rate 50 g/ha): 9
- Plant response rating (0 to 10 scale), Lambsquarter (lambsquarters; PREEMERGENCE, Rate 200 g/ha): 10
- Plant response rating, Lambsquarter (lambsquarters; Rate 200 g/ha, POSTEMERGENCE): 10
- Plant response rating, Sorghum (sorghum; POSTEMERGENCE, Rate 50 g/ha): 5
- Plant response rating, Sorghum (sorghum; PREEMERGENCE, Rate 50 g/ha): 0
- Plant response rating (0 to 10 scale), Sorghum (sorghum; PREEMERGENCE, Rate 200 g/ha): 0
- Plant response rating, Sorghum (sorghum; Rate 200 g/ha, POSTEMERGENCE): 6
- Plant response rating, Barley (barley; POSTEMERGENCE, Rate 50 g/ha): 4
- Plant response rating, Barley (barley; PREEMERGENCE, Rate 50 g/ha): 0
- Plant response rating (0 to 10 scale), Barley (barley; PREEMERGENCE, Rate 200 g/ha): 0
- Plant response rating, Barley (barley; Rate 200 g/ha, POSTEMERGENCE): 5
- Plant response rating, Barnyardgrass (barnyardgrass; POSTEMERGENCE, Rate 50 g/ha): 5
- Plant response rating, Barnyardgrass (barnyardgrass; PREEMERGENCE, Rate 50 g/ha): 3
- Plant response rating (0 to 10 scale), Barnyardgrass (barnyardgrass; PREEMERGENCE, Rate 200 g/ha): 3
- Plant response rating, Barnyardgrass (barnyardgrass; Rate 200 g/ha, POSTEMERGENCE): 7
- Plant response rating, Soybean (soybean; POSTEMERGENCE, Rate 50 g/ha): 6
- Plant response rating, Soybean (soybean; PREEMERGENCE, Rate 50 g/ha): 0
- Plant response rating (0 to 10 scale), Soybean (soybean; PREEMERGENCE, Rate 200 g/ha): 0
- Plant response rating, Soybean (soybean; Rate 200 g/ha, POSTEMERGENCE): 7
- Plant response rating, Sugar beet (sugar beet; POSTEMERGENCE, Rate 50 g/ha): 10
- Plant response rating, Sugar beet (sugar beet; PREEMERGENCE, Rate 50 g/ha): 0
- Plant response rating (0 to 10 scale), Sugar beet (sugar beet; PREEMERGENCE, Rate 200 g/ha): 9
- Plant response rating, Sugar beet (sugar beet; Rate 200 g/ha, POSTEMERGENCE): 10
- Plant response rating, Cotton (cotton; POSTEMERGENCE, Rate 50 g/ha): 10
- Plant response rating, Cotton (cotton; PREEMERGENCE, Rate 50 g/ha): 0
- Plant response rating (0 to 10 scale), Cotton (cotton; PREEMERGENCE, Rate 200 g/ha): 0
- Plant response rating, Cotton (cotton; Rate 200 g/ha, POSTEMERGENCE): 10
- Plant response rating, Rape (rape; POSTEMERGENCE, Rate 50 g/ha): 9
- Plant response rating, Rape (rape; PREEMERGENCE, Rate 50 g/ha): 0
- Plant response rating (0 to 10 scale), Rape (rape; PREEMERGENCE, Rate 200 g/ha): 6
- Plant response rating, Rape (rape; Rate 200 g/ha, POSTEMERGENCE): 9
- Plant response rating, Wild oat (wild oat; POSTEMERGENCE, Rate 50 g/ha): 3
- Plant response rating, Wild oat (wild oat; PREEMERGENCE, Rate 50 g/ha): 0
- Plant response rating (0 to 10 scale), Wild oat (wild oat; PREEMERGENCE, Rate 200 g/ha): 3
- Plant response rating, Wild oat (wild oat; Rate 200 g/ha, POSTEMERGENCE): 4
- Plant response rating, Rice (rice; POSTEMERGENCE, Rate 50 g/ha): 4
- Plant response rating, Rice (rice; PREEMERGENCE, Rate 50 g/ha): 0
- Plant response rating (0 to 10 scale), Rice (rice; PREEMERGENCE, Rate 200 g/ha): 0
- Plant response rating, Rice (rice; Rate 200 g/ha, POSTEMERGENCE): 6
- Plant response rating, Corn (corn; POSTEMERGENCE, Rate 50 g/ha): 3
- Plant response rating, Corn (corn; PREEMERGENCE, Rate 50 g/ha): 0
- Plant response rating (0 to 10 scale), Corn (corn; PREEMERGENCE, Rate 200 g/ha): 2
- Plant response rating, Corn (corn; Rate 200 g/ha, POSTEMERGENCE): 5
- Plant response rating, Cocklebur (cocklebur; POSTEMERGENCE, Rate 50 g/ha): 8
- Plant response rating, Cocklebur (cocklebur; PREEMERGENCE, Rate 50 g/ha): 0
- Plant response rating (0 to 10 scale), Cocklebur (cocklebur; PREEMERGENCE, Rate 200 g/ha): 0
- Plant response rating, Cocklebur (cocklebur; Rate 200 g/ha, POSTEMERGENCE): 10
- Plant response rating, Giant foxtail (giant foxtail; POSTEMERGENCE, Rate 50 g/ha): 4
- Plant response rating, Giant foxtail (giant foxtail; PREEMERGENCE, Rate 50 g/ha): 3
- Plant response rating (0 to 10 scale), Giant foxtail (giant foxtail; PREEMERGENCE, Rate 200 g/ha): 7
- Plant response rating, Giant foxtail (giant foxtail; Rate 200 g/ha, POSTEMERGENCE): 5
